# Results reported in patent US20170217899A1, “NOVEL HALOGEN-SUBSTITUTED COMPOUNDS” (BAYER CROPSCIENCE AKTIENGESELLSCHAFT, priority 2014, published 2017).
# Where two headings read alike, the source gives them in different places.
# Legend:
# [1] = logP determination by HPLC on reversed-phase column (C18), EEC Directive 79/831 Annex V.A8; format: physicochemical; conditions: for chromatographic logP: reversed-phase HPLC column (C18)
# Phaedon cochleariae = Phaedon cochleariae spray test; format: in vivo; conditions: in Brassica rapa, foliar, 168 h
# Experimental: Phaedon cochleariae—Spray Test
# (§1) To produce a suitable preparation of active compound, 1 part by weight of active compound is mixed with the stated amount of solvents and is diluted with water, containing an emulsifier concentration of 1000 ppm, to the desired concentration. Further test concentrations are prepared by dilution with emulsifier containing water.
# Chinese cabbage (Brassica pekinensis) leaf disks are sprayed with a preparation of the active ingredient of the desired concentration. Once dry, the leaf disks are infested with mustard beetle larvae (Phaedon cochleariae).
# After 7 days mortality in % is determined. 100% means all beetle larvae have been killed and 0% means none of the beetle larvae have been killed.
# Spodoptera frugiperda = Spodoptera frugiperda spray test; format: in vivo; conditions: for mortality: 100 g/ha, maize leaf sections, larvae, after 7 days
# Experimental: Spodoptera Frugiperda—Spray Test
# as §1
# Maize (Zea mays) leaf sections are sprayed with a preparation of the active ingredient of the desired concentration. Once dry, the leaf sections are infested with fall armyworm larvae (Spodoptera frugiperda).
# After 7 days mortality in % is determined. 100% means all caterpillars have been killed and 0% means none of the caterpillars have been killed.
# Tetranychus urticae = Tetranychus urticae spray test OP-resistant; format: in vivo; conditions: in Phaseolus vulgaris, foliar, 144 h
# Experimental: Tetranychus urticae—Spray Test OP-Resistant
# as §1
# French bean (Phaseolus vulgaris) leaf disks infected with all instars of the two spotted spidermite (Tetranychus urticae), are sprayed with a preparation of the active ingredient of the desired concentration.
# After 6 days mortality in % is determined. 100% means all spider mites have been killed and 0% means none of the spider mites have been killed.
# Boophilus microplus = Boophilus microplus injection test (BOOPMI Inj); format: in vivo; conditions: 20 μg/animal, injection into adult engorged female ticks, egg deposition after 7 days
# Experimental: Boophilus Microplus—Injectiontest (BOOPMI Inj)
# (§2) Solvent: Dimethyl Sulfoxide
# To produce a suitable preparation of active compound, 10 mg of active compound are dissolved in 0.5 ml solvent, and the concentrate is diluted with solvent to the desired concentration.
# Five adult engorged female ticks (Boophilus microplus) are injected with 1 μl compound solution into the abdomen. The ticks are transferred into replica plates and incubated in a climate chamber.
# After 7 days egg deposition of fertile eggs is monitored. Eggs where fertility is not visible are stored in a climate chamber till hatching after about 42 days. An efficacy of 100% means all eggs are infertile; 0% means all eggs are fertile.
# Ctenocephalides felis = Ctenocephalides felis oral test (CTECFE); format: in vivo; conditions: 100 ppm in cattle blood, adult cat fleas, after 2 days
# Experimental: Ctenocephalides felis—Oral Test (CTECFE)
# as §2
# To produce a suitable preparation of active compound, 10 mg of active compound are dissolved in 0.5 ml solvent, and the concentrate is diluted with cattle blood to the desired concentration.
# Approximately 20 adult unfed cat fleas (Cienocephalides felis) are placed in flea chambers. The blood chamber, sealed with parafilm on the bottom, are filled with cattle blood supplied with compound solution and placed on the gauze covered top of the flea chamber, so that the fleas are able to suck the blood. The blood chamber is heated to 37° C. whereas the flea chamber is kept at room temperature.
# After 2 days mortality in % is determined. 100% means all the fleas have been killed; 0% means none of the fleas have been killed.
# Lucilia cuprina = Lucilia cuprina test (LUCICU); format: in vivo; conditions: 100 ppm, 1st instar larvae, after 2 days
# Experimental: Lucilia cunrina—Test (LUCICU)
# as §2
# 10 mg active compound are dissolved in 0.5 ml Dimethylsulfoxid. Serial dilutions are made to obtain the desired rates.
# Approximately 20 1st instar larvae of the Australian sheep blowfly (Lucilia cuprina) are transferred into a test tube containing minced horse meat and compound solution of the desired concentration.
# After 2 days mortality in % is determined. 100% means all the larvae have been killed; 0% means none of the larvae have been killed.
# Myzus persicae = Myzus persicae spray test; format: in vivo; conditions: 100 g/ha, Chinese cabbage leaf disks, all instars, after 6 days
# Experimental: Myzus Persicae—Spray Test
# as §1
# Chinese cabbage (Brassica pekinensis) leaf disks infected with all instars of the green peach aphid (Myzus persicae), are sprayed with a preparation of the active ingredient of the desired concentration.
# After 6 days mortality in % is determined. 100% means all aphids have been killed and 0% means none of the aphids have been killed.
# [2] = intermediates, values in text, same HPLC method
# [3] = intermediates, values in text, same HPLC method, read-out: log P (HPLC-MS)
# [4] = HPLC, C18, acetonitrile (0.1% formic acid)/water (0.09% formic acid) gradient, read-out: logP
# [5] = HPLC, C18, acetonitrile (0.1% formic acid)/water (0.09% formic acid) gradient
Molecule,"chromatographic logP [1, 3]","logP [1, 5]",also measured
"4′-(difluoromethyl)-5′-(1-fluorocyclopropyl)-4-iodo-2′-methyl-2′H-1,3′-bipyrazole [Example 26]",,,"log P (HPLC-MS) [1, 2]: 3.37"
"5′-(1-fluorocyclopropyl)-4-iodo-2′-methyl-2′H-1,3′-bipyrazole-4′-carbaldehyde [Example 25]",,,"log P (HPLC-MS) [1, 2]: 2.86"
"N#CC1(NC(=O)c2cc(-c3cn[nH]c3)ccc2Cl)CC1 [Example 14, 2-chloro-N-(1-cyanocyclopropyl)-5-(1H-pyrazol-4-yl)benzamide]",1.31,,
"CN(C)/C=C/C(=O)C1(F)CC1 [Example 16, (2E)-3-(dimethylamino)-1-(1-fluorocyclopropyl)prop-2-en-1-one]",1.16,,
"Cn1nc(C2(F)CC2)c(C=O)c1Cl [Example 24, 5-chloro-3-(1-fluorocyclopropyl)-1-methyl-1H-pyrazole-4-carbaldehyde]",1.71,,
"COC(=O)c1cc(-c2cnn(-c3c(C(F)F)c(C4(F)CC4)nn3C)c2)ccc1Cl [Example 28, methyl 2-chloro-5-[4′-(difluoromethyl)-5′-(1-fluorocyclopropyl)-2′-methyl-2′H-1,3′-bipyrazol-4-yl]benzoate]",3.63,,
"Cn1nc(C2(F)CC2)c(C(F)F)c1-n1cc(-c2ccc(Cl)c(C(=O)O)c2)cn1 [Example 29, 2-chloro-5-[4′-(difluoromethyl)-5′-(1-fluorocyclopropyl)-2′-methyl-2′H-1,3′-bipyrazol-4-yl]benzoic acid]",2.71,,
"CN1N=C(C2(F)CC2)CC1=O [Example 32, 5-(1-fluorocyclopropyl)-2-methyl-2,4-dihydro-3H-pyrazol-3-one]",0.38,,
"Cn1nc(C2(F)CC2)c(C(F)(F)F)c1-n1cc(-c2ccc(Cl)c(C(=O)NC3(C#N)CC3)c2)cn1 [Example I-1, 2-chloro-N-(1-cyanocyclopropyl)-5-[5′-(1-fluorocyclopropyl)-2′-methyl-4′-(trifluoromethyl)-2′H-1,3′-bipyrazol-4-yl]benzamide]",,,"chromatographic logP [1, 4]: 3.09"
"Cn1nc(C2(F)CC2)c(C(F)F)c1-n1cc(-c2ccc(Cl)c(C(=O)NC3(C#N)CC3)c2)cn1 [Example I-2, 2-chloro-N-(1-cyanocyclopropyl)-5-[4′-(difluoromethyl)-5′-(1-fluorocyclopropyl)-2′-methyl-2′H-1,3′-bipyrazol-4-yl]benzamide]",,,"chromatographic logP [1, 4]: 2.78; mortality at 100 g/ha (Phaedon cochleariae): 100%; mortality at 100 g/ha (Spodoptera frugiperda; Spodoptera frugiperda, in Zea mays, 168 h): 100%; mortality at 100 g/ha (Tetranychus urticae): 100%"
Cn1nc(C2(F)CC2)c(C(F)F)c1-n1cc(-c2ccc(Cl)c(C(=O)NC3CC3)c2)cn1 [Example I-3],,2.81,
Cn1nc(C2(F)CC2)c([N+](=O)[O-])c1-n1cc(-c2ccc(Cl)c(C(=O)NC3(C#N)CC3)c2)cn1 [Example I-4],,2.69,efficacy (infertile eggs) (Boophilus microplus): 100%; mortality (Ctenocephalides felis): 100%; mortality (Lucilia cuprina): 100%
Cn1nc(C2(F)CC2)c([N+](=O)[O-])c1-n1cc(-c2ccc(Cl)c(C(=O)NC3CC3)c2)cn1 [Example I-5],,2.70,
Cn1nc(C2(Br)CC2)c([N+](=O)[O-])c1-n1cc(-c2ccc(Cl)c(C(=O)NC3CC3)c2)cn1 [Example I-6],,2.98,
Cn1nc(C2(Cl)CC2)c(C(F)F)c1-n1cc(-c2ccc(Cl)c(C(=O)NC3(C#N)CC3)c2)cn1 [Example I-7],,2.96,mortality (Myzus persicae): 90%; mortality (Spodoptera frugiperda): 100%
Cn1nc(C2(Cl)CC2)c(C(F)F)c1-n1cc(-c2ccc(Cl)c(C(=O)NC3CC3)c2)cn1 [Example I-8],,3.05,mortality (Spodoptera frugiperda): 100%
Cn1nc(C2(Cl)CC2)c(C(F)F)c1-n1cc(-c2cnc(Cl)c(C(=O)NC3(C#N)CC3)c2)cn1 [Example I-9],,2.63,
Cn1nc(C2(Cl)CC2)c(C(F)F)c1-n1cc(-c2cnc(Cl)c(C(=O)NC3CC3)c2)cn1 [Example I-10],,2.60,
Cn1nc(C2(F)CC2)c(C(F)F)c1-n1cc(-c2cnc(Cl)c(C(=O)NC3(C#N)CC3)c2)cn1 [Example I-11],,2.44,
Cn1nc(C2(F)CC2)c(C(F)F)c1-n1cc(-c2cnc(Cl)c(C(=O)NC3CC3)c2)cn1 [Example I-12],,2.42,
